Reference: US20260263445A1, “TGF-BETA INHIBITOR FOR USE IN THE TREATMENT OF DEDIFFERENTIATED LIPOSARCOMA” (Institut Curie, priority 2023, published 2026)

B1: bintrafusp alfa: Bifunctional Fusion Protein Targeting TGF-β and PD-L1; CAS 1918149-01-5 (antibody, chains of the INN, looked up, V domains shown)
VH: EVQLLESGGGLVQPGGSLRLSCAASGFTFSSYIMMWVRQAPGKGLEWVSSIYPSGGITFYADTVKGRFTISRDNSKNTLYLQMNSLRAEDTAVYYCARIKLGTVTTVDYWGQGTLVTVSS
VL: QSALTQPASVSGSPGQSITISCTGTSSDVGGYNYVSWYQQHPGKAPKLMIYDVSNRPSGVSNRFSGSKSGNTASLTISGLQAEDEADYYCSSYTSSSTRVFGTGTKVTVL

Columns and labels:
[1] = tested on: DD tumor cells from 2 DDLPS PDX models; assay: Ex vivo adipocytic differentiation of DD tumor cells from DDLPS PDX models; format: cell-based, human; details: ex vivo/in vitro, transcriptomic and phenotypic level
Source text: DDLPS tumor cells keep the multipotent properties of their progenitors. […] Adipocytic differentiation is confirmed with the detection of green vacuoles (Bodipy staining) and osteogenic differentiation by red staining after Alizarin red treatment (Data not shown).
(§1) The inventors also investigated the role of TGFβ in adipocytic differentiation in DDLPS, particularly advanced DDLPS using several TGFβ inhibitors, of a different mode of action and of different nature, such as compounds selected from the group consisting of TGFβ receptor R1/R2 inhibitors LY2109761 and LY364947; monoclonal anti-TGFβ antibodies BX-BE0057 and fresolimumab; TGFβ ligand trap such as luspatercept (a fusion protein that traps TGFβ ligands preventing them from binding to Type II TGFβ receptors) and bintrafusp alfa (a Bifunctional Fusion Protein Targeting TGF-β and PD-L1) and TQB2858 (an anti-TGF-β/PD-L1 antibody).

[2] = tested on: TGFβ pathway; assay: Ex vivo inhibition of TGFβ pathway in DDLPS PDX Sil10AS; format: cell-based, human
Source text: Tests and assays for determining whether a compound is a TGFβ inhibitor are well known by the skilled person in the art such as described in Frey et al., 2022; Szymańska et al., 2020. Determining whether a compound is a TGFβ inhibitor may also be performed using by using recombinant TGFβ proteins, competitive binding assays and measuring the binding affinities, measuring activated TGF-β complexes with other factors to form a serine/threonine kinase complex that binds to TGF-β receptors. […] In another particular embodiment, a TGFβ inhibitor according to the invention is at least as effective as galunisertib and/or as SB431542 in reducing phosphorylation level of SMAD2 and/or SMAD3 protein. Antibodies and/or kits to detect and quantify said phosphorylation level are well known from the skilled in the art and are commercially available.
as §1

[3] = tested on: DDLPS PDX Sil10AS; assay: Nude mice engrafted with DDLPS PDX Sil10AS: tumor growth and differentiation; format: in vivo
Description: 7 nude mice engrafted with the DDLPS PDX Sil10AS are treated with TGFβ inhibitor galunisertib. The tumor growth rate is compared to a control group of 7 nude mice engrafted with the same PDX model and treated with a vehicle. At the end of the experiment, tumor differentiation are assessed at the microscopic and transcriptomic level.

| Molecule | adipocytic differentiation of DD tumor cells [1] | inhibiting ex vivo TGFβ pathway, compared with galunisertib or SB431542 [2] | adipocytic differentiation of DD cells in treated PDX ([3]; DDLPS PDX in nude mice, assessed at the microscopic and transcriptomic level at end of experiment) | tumor growth ([3]; nude mice engrafted with DDLPS PDX Sil10AS, compared with vehicle group) |
| --- | --- | --- | --- | --- |
| c1ccc(-c2[nH]ncc2-c2ccnc3ccccc23)nc1 [LY364947] | restore adipocytic differentiation phenotype | at least as effective than galunisertib or SB431542 |  |  |
| c1ccc(-c2nn3c(c2-c2ccnc4cc(OCCN5CCOCC5)ccc24)CCC3)nc1 [LY2109761] | restore adipocytic differentiation phenotype | at least as effective than galunisertib or SB431542 |  |  |
| NC(=O)c1ccc(-c2nc(-c3ccc4c(c3)OCO4)c(-c3ccccn3)[nH]2)cc1 [SB431542] | restores adipocytic differentiation |  |  |  |
| Cc1cccc(-c2nn3c(c2-c2ccnc4ccc(C(N)=O)cc24)CCC3)n1 [galunisertib] | restores adipocytic differentiation |  | restore adipocytic differentiation | reduce tumor growth |
| TGFβ | prevented |  |  |  |
| fresolimumab: monoclonal anti-TGFβ antibody; CAS 948564-73-6 | restore adipocytic differentiation phenotype | at least as effective than galunisertib or SB431542 |  |  |
| B1 | restore adipocytic differentiation phenotype | at least as effective than galunisertib or SB431542 |  |  |
